Results from patent US6544979B1, “Fused imidazole derivatives for improving oral bioavailability of pharmaceutical agents” (Janssen Pharmaceuticals, N.V., priority 1997, dated 2003).

How the values were obtained:
[1] = system: P388/ADR (adriamycine resistance cell line) murine leukemia; assay: MDR in vivo test: reversal of adriamycine resistance in P388/ADR murine leukemia, survival; design: species or system mice; details: for MST %: control = 100%
Experimental: Male B6D2F1 mice (18-21 g) were injected intraperitoneally with 1×10^5 P388/ADR cells at day 0. Daily intraperitoneal treatment with adriamycine, a test compound of formula (I) or a combination of both was installed from day 1 until day 10. Control animals received the vehicle (15% 4-OH-propyl-β-cyclodextrine in saline). Each group consisted of 8 animals. Adriamycine was dosed at a concentration of 1.25 mg/kg body weight, half the maximal tolerable dose of adriamycine in this treatment schedule. The test compound was dosed at 20, 10, 5, 2.5, 1.25 and 0.63 mg/kg either as single treatment or combined with adriamycine.
Survival of the animals was recorded each day and expressed as a percentage of the median survival in the treated groups compared to the median survival in the control group, the latter to be said to be 100%.
Table C-1 lists the effect of compound 6 and adriamycine on the survival of mice injected with P388/ADR leukemia.
doses of compound 6 and adriamycine are expressed as mg/kg body weight.
column “% Change vs. ADR” give the difference in MST% of the different groups compared to the MST% in the adriamycine-monotherapy group.

in vivo = details: mouse, po, 10 mg/kg
Experimental: The increase in drug bioavailability is defined as an increase in the Area Under the Curve (AUC). AUC is the integrated measure of systemic drug concentrations over time in units of mass-time/volume. The AUC from time zero (the time of dosing) to time infinity (when no drug remains in the body) following the administration of a drug dose is a measure of the exposure of the test subject, i.e. an animal or a human patient, to the drug.
Mice were treated orally (80 mg/kg po) with compound (6) about 10 to 20 minutes prior to oral administration of taxol (10 mg/kg po). The Area Under the Curve (AUC) was measured and compared with the AUC of mice treated only with taxol.

[2] = adriamycine 1.25 mg/kg alone, ip daily day 1-10
[3] = compound 6 0.63 mg/kg combined with adriamycine 1.25 mg/kg
[4] = compound 6 0.63 mg/kg single treatment
[5] = compound 6 1.25 mg/kg combined with adriamycine 1.25 mg/kg
[6] = compound 6 1.25 mg/kg single treatment
[7] = compound 6 2.5 mg/kg combined with adriamycine 1.25 mg/kg
[8] = compound 6 2.5 mg/kg single treatment
[9] = compound 6 5 mg/kg combined with adriamycine 1.25 mg/kg
[10] = compound 6 5 mg/kg single treatment
[11] = compound 6 10 mg/kg combined with adriamycine 1.25 mg/kg
[12] = compound 6 10 mg/kg single treatment
[13] = compound 6 20 mg/kg combined with adriamycine 1.25 mg/kg
[14] = compound 6 20 mg/kg single treatment

Structure (SMILES): O=Cc1cnc2n1CCc1ccccc1C2=C1CCN(CCc2ccc(OCc3ccc4ccccc4n3)cc2)CC1 [Compound 4, 6,11-dihydro-11-[1-[2-[4-(2-quinolinylmethoxy)phenyl]ethyl]-4-piperidinylidene]-5H-imidazo[2,1-b][3]benzazepine-3-carboxaldehyde]
- melting point: 193.5 °C

Structure (SMILES): COc1cccc2c1C(=O)c1c(O)c3c(c(O)c1C2=O)C[C@@](O)(C(=O)CO)C[C@@H]3O[C@H]1C[C@H](N)[C@H](O)[C@H](C)O1 [Adriamycine, adriamycine, reference compound]
- % Change vs. ADR [1, 2]: 0%
- Survival Days med(min-max) [1, 2]: 13(12-15) Days
- MST % [1, 2]: 118%

Structure (SMILES): OC1Cn2ccnc2C(=C2CCN(CCc3ccc(OCc4ccc5ccccc5n4)cc3)CC2)c2ccsc21 (racemic) [Compound 28, (±)-6,10-dihydro-10-[1-[2-[4-(2-quinolinylmethoxy)-phenyl]ethyl]-4-piperidinylidene]-5H-imidazo[1,2-a]-thieno[3,2-d]azepin-6-ol]
- melting point: 242.1 °C

Structure (SMILES): O=C(O)c1cnc2n1CCc1ccccc1C2=C1CCN(CCc2ccc(OCc3ccc4ccccc4n3)cc2)CC1 [Compound 7, 6,11-dihydro-11-[1-[2-[4-(2-quinolinylmethoxy)phenyl]ethyl]-4-piperidinylidene]-5H-imidazo[2,1-b][3]benzazepine-3-carboxylic acid]
- melting point: 174.2 °C

Structure (SMILES): COC(=O)c1cnc2n1CCc1ccccc1C2=C1CCN(CCc2ccc(OCc3ccc4ccccc4n3)cc2)CC1 [Compound 6, methyl 6,11-dihydro-11-[1-[2-[4-(2-quinolinylmethoxy)phenyl]ethyl]-4-piperidinylidene]-5H-imidazo[2,1-b][3]-benzazepine-3-carboxylate]
- % Change vs. ADR [1, 3]: 14%
- Survival Days med(min-max) ([1]; compound 6 0.63 mg/kg combined with adriamycine 1.25 mg/kg, ip daily day 1-10): 14.5(14->30) Days
- MST % [1, 3]: 132%
- % Change vs. ADR [1, 4]: −18%
- Survival Days med(min-max) ([1]; compound 6 0.63 mg/kg single treatment, ip daily day 1-10): 11(10-12) Days
- MST % [1, 4]: 100%
- % Change vs. ADR [1, 5]: 18%
- Survival Days med(min-max) ([1]; compound 6 1.25 mg/kg combined with adriamycine 1.25 mg/kg, ip daily day 1-10): 15(14-17) Days
- MST % [1, 5]: 136%
- % Change vs. ADR [1, 6]: −13%
- Survival Days med(min-max) ([1]; compound 6 1.25 mg/kg single treatment, ip daily day 1-10): 11.5(10-16) Days
- MST % [1, 6]: 105%
- % Change vs. ADR [1, 7]: 14%
- Survival Days med(min-max) ([1]; compound 6 2.5 mg/kg combined with adriamycine 1.25 mg/kg, ip daily day 1-10): 14.5(10-20) Days
- MST % [1, 7]: 132%
- % Change vs. ADR [1, 8]: −23%
- Survival Days med(min-max) ([1]; compound 6 2.5 mg/kg single treatment, ip daily day 1-10): 10.5(10-12) Days
- MST % [1, 8]: 95%
- % Change vs. ADR [1, 9]: 14%
- Survival Days med(min-max) ([1]; compound 6 5 mg/kg combined with adriamycine 1.25 mg/kg, ip daily day 1-10): 14.5(11-16) Days
- MST % [1, 9]: 132%
- % Change vs. ADR [1, 10]: −18%
- Survival Days med(min-max) ([1]; compound 6 5 mg/kg single treatment, ip daily day 1-10): 11(10-13) Days
- MST % [1, 10]: 100%
- % Change vs. ADR [1, 11]: 18%
- Survival Days med(min-max) ([1]; compound 6 10 mg/kg combined with adriamycine 1.25 mg/kg, ip daily day 1-10): 15(14-28) Days
- MST % [1, 11]: 136%
- % Change vs. ADR [1, 12]: −23%
- Survival Days med(min-max) ([1]; compound 6 10 mg/kg single treatment, ip daily day 1-10): 10.5(10-13) Days
- MST % [1, 12]: 95%
- % Change vs. ADR [1, 13]: 23%
- Survival Days med(min-max) ([1]; compound 6 20 mg/kg combined with adriamycine 1.25 mg/kg, ip daily day 1-10): 15.5(14-17) Days
- MST % [1, 13]: 141%
- % Change vs. ADR [1, 14]: −18%
- Survival Days med(min-max) ([1]; compound 6 20 mg/kg single treatment, ip daily day 1-10): 11(10-14) Days
- MST % [1, 14]: 100%

Structure (SMILES): COc1cc(CN2CCC(=C3c4ccccc4CCn4ccnc43)CC2)cc(OC)c1OCc1ccc2ccccc2n1 [Compound 32, 11-[1-[[3,5-dimethoxy-4-(2-quinolinylmethoxy)-phenyl]methyl]-4-piperidinylidene]-6,11-dihydro-5H-imidazo[2,1-b][3]benzazepine]
- melting point: 214.8 °C

Structure (SMILES): CC(=O)O[C@H]1C(=O)[C@@]2(C)[C@H]([C@H](OC(=O)c3ccccc3)[C@]3(O)C[C@H](OC(=O)[C@H](O)[C@@H](NC(=O)c4ccccc4)c4ccccc4)C(C)=C1C3(C)C)[C@]1(OC(C)=O)CO[C@@H]1C[C@@H]2O [taxol, paclitaxel]
- AUC (in vivo): 820 ± 110 ng·h/mL
